# Experimental data taken from US4904764A, “4-diazo-3-methyl-2,5-cyclohexadine-1-one and pharmacetically acceptable salts thereof” (E. R. Squibb & Sons, Inc., priority 1985, dated 1990).
# Assays:
# Shigella sonnei SC8449 = test: Agar dilution assay, aerobic test organisms (MIC); type: cell-based; conditions: S. sonnei SC8449, K-10 agar, 10^4 CFU, 37° C., 18 hours, protected from light
# [1] = system: Bacteroides thetaiotamicron SC9005; test: Agar dilution assay, anaerobic bacteria (MIC); type: cell-based; conditions: B. thetaiotamicron SC9005, DST agar, 10^5 CFU, 37° C., 18 hours, anaerobic chamber
# [2] = system: Bacteroides thetaiotamicron SC10278; test: Agar dilution assay, anaerobic bacteria (MIC); type: cell-based; conditions: B. thetaiotamicron SC10278, DST agar, 10^5 CFU, 37° C., 18 hours, anaerobic chamber
# [3] = system: Bacteroides fragilis SC9844; test: Agar dilution assay, anaerobic bacteria (MIC); type: cell-based; conditions: B. fragilis SC9844, DST agar, 10^5 CFU, 37° C., 18 hours, anaerobic chamber
# [4] = system: Bacteroides fragilis SC10277; test: Agar dilution assay, anaerobic bacteria (MIC); type: cell-based; conditions: B. fragilis SC10277, DST agar, 10^5 CFU, 37° C., 18 hours, anaerobic chamber
# [5] = system: Bacteroides fragilis SC11085; test: Agar dilution assay, anaerobic bacteria (MIC); type: cell-based; conditions: B. fragilis SC11085, DST agar, 10^5 CFU, 37° C., 18 hours, anaerobic chamber
# [6] = system: Clostridium perfringens SC11256; test: microbe, parasite or virus in culture; type: cell-based; conditions: SC11256, 18 h
# [7] = system: Clostridium septicum SC1780; test: Agar dilution assay, anaerobic bacteria (MIC); type: cell-based; conditions: SC1780, 18 h
# Description: The susceptibility of a number of anaerobic bacteria was also determined by an agar dilution technique. Test organisms were prepared from 24-48 hour cultures grown in Chopped Meat Broth (Scott Laboratories, Fiskeville, R.I.) or from washings from chocolate agar slants. These slants were prepared by adding hemoglobin to Proteose #3 Agar (Difco) to a concentration of one percent. The growth was washed off the slants with Brain Heart Infusion Broth (BBL Microbiology Systems) and diluted to a density of 10^8 CFU/ml. The subject compound was dissolved in the appropriate diluent at a concentration of 1000 μg/ml.
# The agar dilution assays yielded the following results: […]
# [8] = system: Clostridium difficile SC11251; test: Agar dilution assay, anaerobic bacteria (MIC); type: cell-based; conditions: Clostridioides difficile; C. difficile SC11251; DST agar, 10^5 CFU, 37° C., 18 hours, anaerobic chamber
# [9] = system: Hemophilus vaginalis SC8568; test: Agar dilution assay, anaerobic bacteria (MIC); type: cell-based; conditions: Gardnerella vaginalis; H. vaginalis SC8568; DST agar, 10^5 CFU, 37° C., 18 hours, anaerobic chamber
# [10] = system: Hemophilus vaginalis SC9640; test: Agar dilution assay, anaerobic bacteria (MIC); type: cell-based; conditions: Gardnerella vaginalis; H. vaginalis SC9640; DST agar, 10^5 CFU, 37° C., 18 hours, anaerobic chamber
# [11] = system: Fusobacterium necrophorum SC10338; test: Agar dilution assay, anaerobic bacteria (MIC); type: cell-based; conditions: F. necrophorum SC10338, DST agar, 10^5 CFU, 37° C., 18 hours, anaerobic chamber
# [12] = system: Pseudomonas anaerobius SC11263; test: Agar dilution assay, anaerobic bacteria (MIC); type: cell-based; conditions: DST agar, 10^5 CFU, 37° C., 18 hours, anaerobic chamber
# [13] = Photolability (half-life); type: physicochemical; conditions: exposure to light; read-out: photolabile, half-life
# [14] = system: gram positive and gram negative bacteria; test: Antibacterial activity (general statement); type: cell-based
# [15] = system: Staphylococcus aureus SC1276; test: Agar dilution assay, aerobic test organisms (MIC); conditions: SC1276, 18 h
# [16] = system: Staphylococcus aureus SC2399; test: Agar dilution assay, aerobic test organisms (MIC); conditions: SC2399, 18 h
# [17] = system: Staphylococcus aureus SC2400; test: Agar dilution assay, aerobic test organisms (MIC); conditions: SC2400, 18 h
# [18] = system: Streptococcus faecalis SC9011; test: Agar dilution assay, aerobic test organisms (MIC); conditions: Enterococcus faecalis, SC9011, 18 h
# [19] = system: Streptococcus agalactiae SC9287; test: Agar dilution assay, aerobic test organisms (MIC); conditions: SC9287, 18 h
# Escherichia coli SC8294 = test: Agar dilution assay, aerobic test organisms (MIC); conditions: SC8294, 18 h
# Escherichia coli SC10896 = test: Agar dilution assay, aerobic test organisms (MIC); conditions: SC10896, 18 h
# [20] = system: Escherichia colid SC10909; test: Agar dilution assay, aerobic test organisms (MIC); conditions: SC10909, 18 h
# [21] = system: Klebsiella aerogenes SC10440; test: Agar dilution assay, aerobic test organisms (MIC); conditions: SC10440, 18 h
# [22] = system: Klebsiella pneumoniae SC9527; test: Agar dilution assay, aerobic test organisms (MIC); conditions: SC9527, 18 h
# Proteus mirabilis SC3855 = test: Agar dilution assay, aerobic test organisms (MIC); conditions: SC3855, 18 h
# [23] = system: Salmonella typhosa SC1195; test: Agar dilution assay, aerobic test organisms (MIC); conditions: Salmonella enterica, 18 h
# [24] = system: Enterobacter cloacae SC8236; test: Agar dilution assay, aerobic test organisms (MIC); conditions: SC8236, 18 h
# [25] = system: Pseudomonas aeruginosa SC8333; test: Agar dilution assay, aerobic test organisms (MIC); conditions: SC8333, 18 h
compound,measurement,setting,value
COC1=CC(=O)C=CC1=[N+]=[N-],MIC,Shigella sonnei SC8449,1.6 mg/L
same,MIC,[1],0.4 mg/L
same,MIC,[2],0.4 mg/L
same,MIC,[3],0.4 mg/L
same,MIC,[4],0.4 mg/L
same,MIC,[5],0.2 mg/L
same,MIC,[6],0.2 mg/L
same,MIC,[7],< 0.05 mg/L
same,MIC,[8],0.4 mg/L
same,MIC,[9],0.2 mg/L
same,MIC,[10],0.4 mg/L
same,MIC,[11],< 0.05 mg/L
same,MIC,[12],< 0.05 mg/L
same,half-life,[13],< 2 h
same,activity against bacteria,[14],"activity against a variety of gram positive and gram negative bacteria, particularly against anaerobic bacteria"
same,MIC,[15],2.5 mg/L
same,MIC,[16],12.5 mg/L
same,MIC,[17],12.5 mg/L
same,MIC,[18],6.3 mg/L
same,MIC,[19],6.3 mg/L
same,MIC,Escherichia coli SC8294,3.1 mg/L
same,MIC,Escherichia coli SC10896,6.3 mg/L
same,MIC,[20],3.1 mg/L
same,MIC,[21],12.5 mg/L
same,MIC,[22],25 mg/L
same,MIC,Proteus mirabilis SC3855,3.1 mg/L
same,MIC,[23],1.6 mg/L
same,MIC,[24],50 mg/L
same,MIC,[25],25 mg/L
